{"source": "ChEMBL document CHEMBL1158675", "about": "“A bioactive secosterol with an unusual A- and B-ring oxygenation pattern isolated from an Indonesian soft coral Lobophytum sp” (J Nat Prod, 1998)", "key": {"[1]": {"tested_on": "K562", "assay": "Cytotoxicity against human K562 cells", "assay_type": "functional, cell-based"}, "[2]": {"tested_on": "A2780", "assay": "Cytotoxicity against human A2780 cells", "assay_type": "functional, cell-based"}}, "data": [{"smiles": "CC(C)[C@@H](C)[C@@]1(C)C[C@@H]1[C@@H](C)[C@H]1CC[C@@H]([C@H]2C(=O)[C@@]3(C)CC[C@H](O)C[C@@]34O[C@H]4[C@@H]2O)[C@]1(C)CCO", "values": [{"measurement": "IC50", "setting": "[1]", "result": 7.1, "unit": "µM"}, {"measurement": "IC50", "setting": "[2]", "result": 6.3, "unit": "µM"}]}]}
